Our source for the GI50 and TGI values is PubChem BioAssay (NCI).

The structures appear in SMILES notation. Where “and” joins values, the source holds several entries; their conditions need not be identical. Identical values can stand only once.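 Where inhibition never reached the appropriate level, the endpoint shown equals the highest concentration tested. Otherwise, values were interpolated linearly from a five-concentration, 48-hour dose response in 96-well plates. Here, GI50 denotes the concentration required for 50% inhibition of growth. TGI: concentration producing complete growth inhibition.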

Some test systems named below: 786-0 renal; A498 renal; ACHN renal; MALME-3M melanoma; MCF7 breast; NCI-H460 lung; OVCAR-3 ovarian; OVCAR-5 ovarian; OVCAR-8 ovarian; SK-OV-3 ovarian.
Holding throughout (test): growth of human tumour cells (NCI), 48 h

As for `Cc1ncc(CCCN(C)C)cc1Nc1ncc2c(n1)-c1ccc(C(F)(F)F)cc1NC(=S)C2`, the GI50 was 0.0825 µM with 786-0 renal; 0.0219 µM with A498 renal; 0.0892 µM in the assay with ACHN renal; 0.0312 µM in the assay with MALME-3M melanoma; less than 0.0155 µM in the assay on MCF7 breast; less than 0.0178 µM in the assay on NCI-H460 lung. The GI50 in the assay on OVCAR-3 ovarian was 0.0582 µM; in the assay with OVCAR-5 ovarian it was less than 0.0237 µM; in the assay with OVCAR-8 ovarian it was less than 0.0179 µM; with SK-OV-3 ovarian, less than 0.0155 µM. The TGI in the assay on 786-0 renal is 21.6 µM; in the assay on A498 renal, 0.0769 µM; with ACHN renal, more than 53.6 µM; with MALME-3M melanoma it was 23.6 µM; with MCF7 breast it was 11.2 µM; in the assay with NCI-H460 lung, 11.9 µM. Also, the TGI was 15.2 µM with OVCAR-3 ovarian, more than 51.1 µM in the assay with OVCAR-5 ovarian, 23.1 µM in the assay on OVCAR-8 ovarian and 0.448 µM in the assay with SK-OV-3 ovarian.

Regarding `O=c1cc(NC2CCN(CCCc3ccccc3)CC2)c2cc(Cl)ccc2o1`, the GI50 is 6.55 µM with 786-0 renal; 0.0423 µM in the assay on A498 renal; 4.86 µM in the assay on ACHN renal; 11.2 µM in the assay with MALME-3M melanoma; 9.42 µM in the assay with MCF7 breast; 15.7 µM in the assay on NCI-H460 lung. The GI50 with OVCAR-3 ovarian is 6.6 µM; with OVCAR-5 ovarian, 10.8 µM; in the assay with OVCAR-8 ovarian, 12.1 µM; with SK-OV-3 ovarian, 16.1 µM. Further, the TGI with 786-0 renal was determined as 21.2 µM; in the assay with A498 renal it was 6.92 µM; in the assay with ACHN renal, 17.6 µM; in the assay with MALME-3M melanoma, 25.4 µM; in the assay on MCF7 breast it was 26.9 µM; with NCI-H460 lung it was 29.6 µM. The TGI in the assay on OVCAR-3 ovarian stood at 19.4 µM; in the assay on OVCAR-5 ovarian, 24.6 µM; with OVCAR-8 ovarian, 27.2 µM; in the assay on SK-OV-3 ovarian, 29.8 µM.

Take `Nc1nc(F)nc2c1ncn2C1OC(CO)C(O)C1O` (stereo unspecified): the GI50 in the assay with 786-0 renal was 13.2 µM; with A498 renal, more than 100 µM; in the assay with ACHN renal it was 23.2 µM; with MALME-3M melanoma, 28.1 µM; in the assay on MCF7 breast it was 26.3 µM; with NCI-H460 lung, 43.2 µM. In the assay on OVCAR-8 ovarian, the GI50 is 3.64 µM. For the same compound, the TGI with 786-0 renal, in the assay on A498 renal, in the assay with ACHN renal, in the assay with MALME-3M melanoma, in the assay with MCF7 breast and in the assay with NCI-H460 lung was more than 100 µM each time. The TGI with OVCAR-3 ovarian, in the assay on OVCAR-5 ovarian, in the assay with OVCAR-8 ovarian and with SK-OV-3 ovarian was more than 100 µM each time.

Turning to `C[C@H](O)C(=O)N1CCC(CCn2c(Sc3cc4c(cc3Br)OCO4)nc3c(N)ncnc32)CC1`, the GI50 in the assay on 786-0 renal is 3.77 µM; in the assay on A498 renal, 3.35 µM; with ACHN renal, 0.84 µM; in the assay with MALME-3M melanoma, 0.807 µM; with MCF7 breast, 0.368 µM; in the assay with NCI-H460 lung, 0.432 µM. Also, the GI50 with OVCAR-3 ovarian was 3.28 µM; in the assay on OVCAR-5 ovarian it was 2.74 µM; in the assay with OVCAR-8 ovarian it was 0.827 µM; in the assay with SK-OV-3 ovarian it was 0.48 µM. In addition, the TGI with 786-0 renal, in the assay on A498 renal, with ACHN renal, with MALME-3M melanoma, in the assay on MCF7 breast and in the assay on NCI-H460 lung was more than 100 µM in each case. In addition, the TGI with OVCAR-3 ovarian, with OVCAR-5 ovarian, in the assay on OVCAR-8 ovarian and in the assay on SK-OV-3 ovarian was more than 100 µM each time.

Consider `ClCC[N+]12CC[N+](CCCl)(CC1)C2`, for which the TGI in the assay on 786-0 renal, with A498 renal, in the assay with ACHN renal, in the assay on MALME-3M melanoma, in the assay on MCF7 breast and with NCI-H460 lung was more than 100 µM in each case. Also, the TGI with OVCAR-3 ovarian, with OVCAR-5 ovarian, with OVCAR-8 ovarian and in the assay with SK-OV-3 ovarian was more than 100 µM in each case.

On to `CCOc1cc(C(C)(C)C)ccc1C1=N[C@@](C)(c2ccc(Cl)cc2)[C@@](C)(c2ccc(Cl)cc2)N1C(=O)N1CCN(CCCS(C)(=O)=O)CC1`, for which the GI50 with 786-0 renal was 3.2 µM; with A498 renal, 1.64 µM; with ACHN renal, 0.505 µM; in the assay with MALME-3M melanoma, 0.274 µM; in the assay with MCF7 breast, 0.456 µM; with NCI-H460 lung, 0.895 µM. The GI50 in the assay with OVCAR-3 ovarian is 11.5 µM; in the assay on OVCAR-5 ovarian, 8.41 µM; in the assay with OVCAR-8 ovarian, 12 µM; with SK-OV-3 ovarian it was 14 µM. Also, the TGI was 15.4 µM with 786-0 renal; 9.46 µM in the assay with A498 renal; 11.3 µM with ACHN renal; 11.3 µM in the assay with MALME-3M melanoma; 3.89 µM with MCF7 breast; 11.8 µM in the assay with NCI-H460 lung. In addition, the TGI is 25.7 µM with OVCAR-3 ovarian, 20.8 µM in the assay with OVCAR-5 ovarian, more than 100 µM with OVCAR-8 ovarian and 32.9 µM in the assay with SK-OV-3 ovarian.

`O=c1cccc(C#CC#CC2=CCCCC2)o1`: the GI50 is 1.59 µM in the assay on 786-0 renal; 19.8 µM in the assay on A498 renal; 4.49 µM with ACHN renal; 7.34 µM in the assay with MALME-3M melanoma; 5.04 µM in the assay on MCF7 breast; 10.6 µM in the assay with NCI-H460 lung. In addition, the GI50 is 6.66 µM in the assay with OVCAR-3 ovarian, 6.21 µM in the assay on OVCAR-5 ovarian, 2.21 µM with OVCAR-8 ovarian and 10.5 µM in the assay on SK-OV-3 ovarian. Moreover, the TGI in the assay with 786-0 renal stood at 4.35 µM; in the assay with A498 renal, 36.8 µM; in the assay with ACHN renal it was 10 µM; in the assay on MALME-3M melanoma, 13.8 µM; in the assay on MCF7 breast, 13.4 µM; in the assay with NCI-H460 lung, 21.8 µM. Also, the TGI in the assay on OVCAR-3 ovarian turned out to be 10.4 µM; in the assay with OVCAR-5 ovarian, 10.2 µM; in the assay with OVCAR-8 ovarian, 6.32 µM; in the assay with SK-OV-3 ovarian it was 27.9 µM.

`O=S(=O)(Nc1cc(Sc2cccc3cccnc23)c(O)c2ccccc12)c1ccccc1`: the GI50 with 786-0 renal is 0.79 µM; in the assay with A498 renal, 4.01 µM; with ACHN renal, 0.772 µM; in the assay with MALME-3M melanoma, 2.72 µM; in the assay on MCF7 breast, 0.52 µM; in the assay on NCI-H460 lung, 0.499 µM. Besides, the GI50 is 0.817 µM in the assay with OVCAR-3 ovarian, 1.99 µM in the assay on OVCAR-5 ovarian, 0.631 µM in the assay on OVCAR-8 ovarian and 4.3 µM with SK-OV-3 ovarian. Moreover, the TGI in the assay with 786-0 renal is 10.7 µM; in the assay on A498 renal it was 30.6 µM; with ACHN renal, 5.54 µM; in the assay with MALME-3M melanoma, 9.65 µM; with MCF7 breast it was 2.85 µM; with NCI-H460 lung it was 13.7 µM. Besides, the TGI was 3.9 µM in the assay on OVCAR-3 ovarian, 11 µM in the assay with OVCAR-5 ovarian, more than 100 µM in the assay on OVCAR-8 ovarian and 17.9 µM in the assay with SK-OV-3 ovarian.

On to `CCn1c(SCc2ccc(C)cc2)nnc1-c1nn(-c2ccc(Cl)cc2Cl)c(-c2ccc(Cl)cc2)c1C`, for which the GI50 was 2.69 µM with 786-0 renal; 1.37 µM with A498 renal; 2.74 µM in the assay with ACHN renal; 2.15 µM in the assay with MALME-3M melanoma; 2.26 µM in the assay with MCF7 breast; 1.46 µM with NCI-H460 lung. The GI50 is 1.98 µM with OVCAR-3 ovarian, 3.54 µM with OVCAR-5 ovarian, 2.12 µM in the assay with OVCAR-8 ovarian and 2.58 µM with SK-OV-3 ovarian. For the same compound, the TGI in the assay with 786-0 renal was 12.2 µM; with A498 renal, 7.88 µM; with ACHN renal, 10.4 µM; in the assay on MALME-3M melanoma, 8.88 µM; in the assay on MCF7 breast, 11.4 µM; with NCI-H460 lung, 10.5 µM. Moreover, the TGI in the assay with OVCAR-3 ovarian is 11.6 µM; with OVCAR-5 ovarian, 15.2 µM; in the assay with OVCAR-8 ovarian, 10.7 µM; in the assay on SK-OV-3 ovarian, 8.18 µM.

With `C/C(N=NC(=S)N(C)C)=C1\C=CC=CN1O`, the TGI with 786-0 renal is more than 52.2 µM; with A498 renal it was more than 100 µM; in the assay with ACHN renal, more than 100 µM; in the assay on MALME-3M melanoma it was more than 67.2 µM; with MCF7 breast it was more than 100 µM; in the assay on NCI-H460 lung it was more than 100 µM. Further, the TGI in the assay on OVCAR-3 ovarian is more than 100 µM; in the assay with OVCAR-5 ovarian it was more than 100 µM; in the assay with OVCAR-8 ovarian, more than 94.1 µM; in the assay on SK-OV-3 ovarian, more than 100 µM.

As to `CCc1nc(C(N)=O)c(Nc2ccc(N3CCC(N4CCN(C)CC4)CC3)c(OC)c2)nc1NC1CCOCC1`, the GI50 with 786-0 renal was 2.48 µM and 0.461 µM and 2.38 µM; in the assay on A498 renal, 0.96 µM and 0.165 µM and 0.931 µM; in the assay on ACHN renal it was 2.07 µM and 0.42 µM and 1.48 µM; in the assay with MALME-3M melanoma, 0.946 µM and 0.239 µM and 0.764 µM; with MCF7 breast, 0.672 µM and 0.258 µM and 0.493 µM; in the assay on NCI-H460 lung it was 1.37 µM and 0.501 µM and 1.27 µM. The GI50 with OVCAR-3 ovarian is 8.01 µM and 3.69 µM and 9.27 µM; in the assay with OVCAR-5 ovarian, 0.484 µM and 0.279 µM and 0.486 µM; in the assay on OVCAR-8 ovarian, 10.3 µM and 1.62 µM and 10.1 µM; with SK-OV-3 ovarian it was 1.57 µM and 0.397 µM and 1.51 µM. Besides, the TGI with 786-0 renal was 13.8 µM and > 10 µM and 14.1 µM; in the assay on A498 renal, 4.41 µM and 0.6 µM and 4.9 µM; in the assay on ACHN renal it was 17.1 µM and > 10 µM and 15.4 µM; in the assay with MCF7 breast, 17.2 µM and > 10 µM and 17.7 µM; with NCI-H460 lung, 17.4 µM and > 10 µM and 19.5 µM; in the assay on OVCAR-3 ovarian, 22.9 µM and > 10 µM. Further, the TGI in the assay on OVCAR-5 ovarian is 14.5 µM and > 10 µM; with OVCAR-8 ovarian it was 36.8 µM and > 10 µM and 30.2 µM; with SK-OV-3 ovarian, 12.3 µM and > 10 µM and 13.8 µM.

Consider `Br[C](Br)(Br)[Hg][c]1ccccc1`, for which the GI50 in the assay on 786-0 renal is 16.2 µM; in the assay with A498 renal it was 16.2 µM; with ACHN renal, 17.1 µM; with MALME-3M melanoma, 1.31 µM; with MCF7 breast, 4.85 µM; in the assay with NCI-H460 lung, 16.8 µM. In addition, the GI50 in the assay with OVCAR-3 ovarian is 9.76 µM; with OVCAR-5 ovarian it was 15.4 µM; in the assay with OVCAR-8 ovarian, 12.9 µM; with SK-OV-3 ovarian it was 19 µM. For the same compound, the TGI was found to be 30.2 µM with 786-0 renal; 30 µM in the assay on A498 renal; 30.8 µM in the assay on ACHN renal; 3.99 µM in the assay on MALME-3M melanoma; 19.4 µM in the assay with MCF7 breast; 37.9 µM with NCI-H460 lung. Further, the TGI in the assay with OVCAR-3 ovarian turned out to be 23.3 µM; with OVCAR-5 ovarian it was 28.8 µM; in the assay on OVCAR-8 ovarian, 18.4 µM; in the assay on SK-OV-3 ovarian, 33.1 µM.
